# PubChem BioAssay (NCI)
# Where “and” joins values, the source holds several entries; their conditions need not be identical. Equal values may be shown once.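 Following 48 hours of exposure in 96-well plates, responses at five concentrations were used to interpolate endpoints linearly. GI50 = concentration required for 50% inhibition of growth. At the TGI there is no net growth.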
# Columns and labels:
# Assay in all cases: growth of human tumour cells (NCI), 48 h
# 786-0 renal = test system: 786-0 renal
# A498 renal = test system: A498 renal
# A549 NSCLC = test system: A549 NSCLC
# ACHN renal = test system: ACHN renal
# CAKI-1 renal = test system: CAKI-1 renal
# CCRF-CEM leukemia = test system: CCRF-CEM leukemia
# COLO 205 colon = test system: COLO 205 colon
# EKVX NSCLC = test system: EKVX NSCLC
# HCC-2998 colon = test system: HCC-2998 colon
# HCT-116 colon = test system: HCT-116 colon
# HCT-15 colon = test system: HCT-15 colon
# HL-60(TB) leukemia = test system: HL-60(TB) leukemia
# HOP-62 NSCLC = test system: HOP-62 NSCLC
# HOP-92 NSCLC = test system: HOP-92 NSCLC
# HS 578T breast = test system: HS 578T breast
# HT29 colon = test system: HT29 colon
# K-562 leukemia = test system: K-562 leukemia
# KM12 colon = test system: KM12 colon
# LOX IMVI melanoma = test system: LOX IMVI melanoma
# M14 melanoma = test system: M14 melanoma
# MALME-3M melanoma = test system: MALME-3M melanoma
# MCF7 breast = test system: MCF7 breast
# MDA-MB-231 breast = test system: MDA-MB-231 breast
# MDA-MB-435 = test system: MDA-MB-435
# MDA-N = test system: MDA-N
# NCI-H226 lung = test system: NCI-H226 lung
# NCI-H23 lung = test system: NCI-H23 lung
# NCI-H460 lung = test system: NCI-H460 lung
# NCI/ADR-RES ovarian = test system: NCI/ADR-RES ovarian
# OVCAR-3 ovarian = test system: OVCAR-3 ovarian
# OVCAR-5 ovarian = test system: OVCAR-5 ovarian
# OVCAR-8 ovarian = test system: OVCAR-8 ovarian
# PC-3 prostate = test system: PC-3 prostate
# RPMI-8226 leukemia = test system: RPMI-8226 leukemia
# RXF 393 renal = test system: RXF 393 renal
# SF-268 CNS = test system: SF-268 CNS
# SF-295 CNS = test system: SF-295 CNS
# SF-539 CNS = test system: SF-539 CNS
# SK-MEL-28 melanoma = test system: SK-MEL-28 melanoma
# SK-MEL-5 melanoma = test system: SK-MEL-5 melanoma
# SK-OV-3 ovarian = test system: SK-OV-3 ovarian
# SN12C renal = test system: SN12C renal
# SNB-19 CNS = test system: SNB-19 CNS
# SNB-75 CNS = test system: SNB-75 CNS
# SR leukemia = test system: SR leukemia
# SW-620 colon = test system: SW-620 colon
# T-47D breast = test system: T-47D breast
# TK-10 renal = test system: TK-10 renal
# U251 CNS = test system: U251 CNS
# UACC-257 melanoma = test system: UACC-257 melanoma
# UACC-62 melanoma = test system: UACC-62 melanoma
# BT-549 breast = test system: BT-549 breast
# DU-145 prostate = test system: DU-145 prostate
# IGROV1 ovarian = test system: IGROV1 ovarian
# MOLT-4 leukemia = test system: MOLT-4 leukemia
# NCI-H522 lung = test system: NCI-H522 lung
# OVCAR-4 ovarian = test system: OVCAR-4 ovarian
# SK-MEL-2 melanoma = test system: SK-MEL-2 melanoma
# UO-31 renal = test system: UO-31 renal
structure (smiles),measurement,setting,value
Oc1ccc2ccccc2c1CCc1c(O)ccc2ccccc12,TGI,786-0 renal,34.9 µM
same,TGI,A498 renal,38.2 µM
same,TGI,A549 NSCLC,25.3 µM
same,TGI,ACHN renal,30 µM
same,TGI,CAKI-1 renal,20.5 µM
same,TGI,CCRF-CEM leukemia,25.2 µM
same,TGI,COLO 205 colon,29.1 µM
same,TGI,EKVX NSCLC,26.4 µM
same,TGI,HCC-2998 colon,21.8 µM
same,TGI,HCT-116 colon,25.1 µM
same,TGI,HCT-15 colon,28 µM
same,TGI,HL-60(TB) leukemia,40.9 µM
same,TGI,HOP-62 NSCLC,28.2 µM
same,TGI,HOP-92 NSCLC,24.7 µM
same,TGI,HS 578T breast,45.1 µM
same,TGI,HT29 colon,18.6 µM
same,TGI,K-562 leukemia,24.9 µM
same,TGI,KM12 colon,24.8 µM
same,TGI,LOX IMVI melanoma,28 µM
same,TGI,M14 melanoma,29.5 µM
same,TGI,MALME-3M melanoma,26.9 µM
same,TGI,MCF7 breast,26.3 µM
same,TGI,MDA-MB-231 breast,27.5 µM
same,TGI,MDA-MB-435,25.4 µM
same,TGI,MDA-N,27.6 µM
same,TGI,NCI-H226 lung,33.2 µM
same,TGI,NCI-H23 lung,26.1 µM
same,TGI,NCI-H460 lung,22.2 µM
same,TGI,NCI/ADR-RES ovarian,31.1 µM
same,TGI,OVCAR-3 ovarian,17.4 µM
same,TGI,OVCAR-5 ovarian,27.2 µM
same,TGI,OVCAR-8 ovarian,27.6 µM
same,TGI,PC-3 prostate,26.9 µM
same,TGI,RPMI-8226 leukemia,22 µM
same,TGI,RXF 393 renal,27.5 µM
same,TGI,SF-268 CNS,25.2 µM
same,TGI,SF-295 CNS,28.7 µM
same,TGI,SF-539 CNS,30.3 µM
same,TGI,SK-MEL-28 melanoma,22.6 µM
same,TGI,SK-MEL-5 melanoma,25.7 µM
same,TGI,SK-OV-3 ovarian,29.4 µM
same,TGI,SN12C renal,23.3 µM
same,TGI,SNB-19 CNS,32.4 µM
same,TGI,SNB-75 CNS,18.3 µM
same,TGI,SR leukemia,32.6 µM
same,TGI,SW-620 colon,28.4 µM
same,TGI,T-47D breast,12.5 µM
same,TGI,TK-10 renal,32.5 µM
same,TGI,U251 CNS,26 µM
same,TGI,UACC-257 melanoma,27.2 µM
same,TGI,UACC-62 melanoma,21.2 µM
COc1cc2c(Oc3ccc(NC(=O)C4(C(=O)Nc5ccc(F)cc5)CC4)cc3F)ccnc2cc1OCCCN1CCOCC1,GI50,786-0 renal,1.61 µM and 1.54 µM
same,TGI,786-0 renal,3.11 µM and 2.99 µM
same,GI50,A498 renal,< 0.0462 µM and 0.383 µM
same,TGI,A498 renal,1.24 µM and 1.7 µM
same,GI50,A549 NSCLC,0.556 µM and 0.625 µM
same,TGI,A549 NSCLC,1.88 µM and 2.2 µM
same,GI50,ACHN renal,0.558 µM and 0.702 µM
same,TGI,ACHN renal,2.33 µM and 3.27 µM
same,GI50,BT-549 breast,1.82 µM and 2.78 µM
same,TGI,BT-549 breast,3.93 µM and > 9.51 µM
same,GI50,CAKI-1 renal,0.547 µM and 0.768 µM
same,TGI,CAKI-1 renal,1.97 µM and > 4.86 µM
same,GI50,CCRF-CEM leukemia,0.531 µM and 0.383 µM
same,GI50,COLO 205 colon,0.281 µM and 0.308 µM
same,TGI,COLO 205 colon,0.641 µM and 0.934 µM
same,GI50,DU-145 prostate,1.52 µM and 1.98 µM
same,TGI,DU-145 prostate,4.39 µM and > 10 µM
same,GI50,EKVX NSCLC,1.16 µM and 1.93 µM
same,TGI,EKVX NSCLC,4.73 µM and > 10 µM
same,GI50,HCC-2998 colon,1.24 µM and 1.31 µM
same,TGI,HCC-2998 colon,2.62 µM and 4.31 µM
same,GI50,HCT-116 colon,0.609 µM and 0.586 µM
same,TGI,HCT-116 colon,2.02 µM and 2.06 µM
same,GI50,HCT-15 colon,0.935 µM and 1.03 µM
same,TGI,HCT-15 colon,3.8 µM and 4.04 µM
same,GI50,HL-60(TB) leukemia,0.164 µM and 0.389 µM
same,TGI,HL-60(TB) leukemia,2.02 µM and 2.34 µM
same,GI50,HOP-62 NSCLC,0.798 µM and 0.573 µM
same,TGI,HOP-62 NSCLC,2.17 µM and 4.15 µM
same,GI50,HOP-92 NSCLC,0.243 µM and 0.0433 µM
same,TGI,HOP-92 NSCLC,1.65 µM and 0.991 µM
same,GI50,HS 578T breast,2.06 µM and 0.387 µM
same,GI50,HT29 colon,0.387 µM
same,TGI,HT29 colon,1.8 µM
same,GI50,IGROV1 ovarian,1.31 µM and 0.645 µM
same,TGI,IGROV1 ovarian,8.49 µM and 2.74 µM
same,GI50,K-562 leukemia,0.102 µM and 0.15 µM
same,TGI,K-562 leukemia,1.78 µM and 1.33 µM
same,GI50,KM12 colon,0.0177 µM and 0.0189 µM
same,TGI,KM12 colon,1.44 µM and 2.28 µM
same,GI50,LOX IMVI melanoma,0.713 µM
same,TGI,LOX IMVI melanoma,1.95 µM
same,GI50,M14 melanoma,0.479 µM and 0.54 µM
same,TGI,M14 melanoma,1.83 µM and 1.96 µM
same,GI50,MALME-3M melanoma,0.635 µM and 0.571 µM
same,TGI,MALME-3M melanoma,2.51 µM and 2.05 µM
same,GI50,MCF7 breast,0.515 µM and 0.546 µM
same,TGI,MCF7 breast,2.03 µM and 3 µM
same,GI50,MDA-MB-231 breast,1.33 µM and 1.28 µM
same,TGI,MDA-MB-231 breast,2.72 µM and 2.74 µM
same,GI50,MDA-MB-435,0.694 µM
same,TGI,MDA-MB-435,2.39 µM
same,GI50,MOLT-4 leukemia,0.573 µM and 0.547 µM
same,TGI,MOLT-4 leukemia,> 24.9 µM and 5.45 µM
same,GI50,NCI-H226 lung,0.491 µM and 0.662 µM
same,TGI,NCI-H226 lung,2.07 µM and 3.96 µM
same,GI50,NCI-H23 lung,0.383 µM and 0.511 µM
same,TGI,NCI-H23 lung,2.41 µM and > 10 µM
same,GI50,NCI-H460 lung,0.521 µM and 0.575 µM
same,TGI,NCI-H460 lung,2.05 µM and 2.51 µM
same,GI50,NCI-H522 lung,0.983 µM
same,TGI,NCI-H522 lung,2.87 µM
same,GI50,NCI/ADR-RES ovarian,1.98 µM
same,TGI,NCI/ADR-RES ovarian,> 10 µM
same,GI50,OVCAR-3 ovarian,1.46 µM and 2.25 µM
same,TGI,OVCAR-3 ovarian,3.36 µM and > 10 µM
same,GI50,OVCAR-4 ovarian,0.747 µM and 2.56 µM
same,TGI,OVCAR-4 ovarian,13.2 µM and > 10 µM
same,GI50,OVCAR-5 ovarian,0.885 µM and 1.35 µM
same,TGI,OVCAR-5 ovarian,2.7 µM and > 8.7 µM
same,GI50,OVCAR-8 ovarian,1.42 µM and 2.08 µM
same,TGI,OVCAR-8 ovarian,4 µM and > 10 µM
same,GI50,PC-3 prostate,1.9 µM and 1.23 µM
same,TGI,PC-3 prostate,14.5 µM and > 10 µM
same,GI50,RPMI-8226 leukemia,2.02 µM and 1.68 µM
same,TGI,RPMI-8226 leukemia,5.02 µM and 7.07 µM
same,GI50,RXF 393 renal,0.468 µM and 0.661 µM
same,TGI,RXF 393 renal,1.77 µM and 1.9 µM
same,GI50,SF-268 CNS,0.858 µM and 1.19 µM
same,TGI,SF-268 CNS,2.37 µM and 7.01 µM
same,GI50,SF-295 CNS,0.0519 µM and 0.0663 µM
same,TGI,SF-295 CNS,1.26 µM and 1.49 µM
same,GI50,SF-539 CNS,0.288 µM and 0.456 µM
same,TGI,SF-539 CNS,1.65 µM and 1.67 µM
same,GI50,SK-MEL-2 melanoma,1.44 µM and 1.63 µM
same,TGI,SK-MEL-2 melanoma,2.93 µM and 3.74 µM
same,GI50,SK-MEL-28 melanoma,1.12 µM and 1.25 µM
same,TGI,SK-MEL-28 melanoma,2.47 µM and 2.69 µM
same,GI50,SK-MEL-5 melanoma,1.37 µM and 1.39 µM
same,TGI,SK-MEL-5 melanoma,2.68 µM and 2.71 µM
same,GI50,SK-OV-3 ovarian,1.81 µM and 1.88 µM
same,TGI,SK-OV-3 ovarian,3.94 µM and 5.53 µM
same,GI50,SN12C renal,0.266 µM and 0.259 µM
same,TGI,SN12C renal,13.3 µM and > 10 µM
same,GI50,SNB-19 CNS,1.99 µM and 2.14 µM
same,TGI,SNB-19 CNS,5.77 µM and > 10 µM
same,GI50,SNB-75 CNS,0.175 µM and 0.15 µM
same,TGI,SNB-75 CNS,1.88 µM and 2.16 µM
same,GI50,SR leukemia,0.932 µM and 0.583 µM
same,TGI,SR leukemia,3.45 µM and 2.78 µM
same,GI50,SW-620 colon,0.346 µM and 0.311 µM
same,TGI,SW-620 colon,1.85 µM and 2.6 µM
same,GI50,T-47D breast,1.37 µM and 1.44 µM
same,TGI,T-47D breast,3.63 µM and > 8.02 µM
same,GI50,TK-10 renal,1.03 µM and 1.36 µM
same,TGI,TK-10 renal,2.57 µM and 4.42 µM
same,GI50,U251 CNS,1.42 µM
same,TGI,U251 CNS,3.32 µM
same,GI50,UACC-257 melanoma,1.19 µM
same,TGI,UACC-257 melanoma,2.78 µM
same,GI50,UACC-62 melanoma,1.24 µM and 0.891 µM
same,TGI,UACC-62 melanoma,2.72 µM and 2.48 µM
same,GI50,UO-31 renal,0.984 µM and 0.654 µM
same,TGI,UO-31 renal,2.61 µM and 2.04 µM
